Experiment [1] addresses T1, KEAP1 (Kelch domain, WT) (Homo sapiens, UniProt Q14145).
T1 construct: Kelch domain of KEAP1 (Lys312-Cys624)
Put plainly: BLI with purified biotinylated Kelch (also HDX-MS, CETSA in GES-1 cells, pull-down and SPR disruption of KEAP1-NRF2). The format is binding.

Experiment [2] deals with T2, KEAP1 (mutant Kelch domain) (Homo sapiens, UniProt Q14145, N382A/N414A/R380A/R415A/S602A/Y334A/Y572A).
T2 construct: Kelch domain of KEAP1 (Lys312-Cys624)
Briefly: BLI with purified biotinylated mutant Kelch. Type of experiment: binding.

The structures appear in SMILES notation. pKd: −log10 of the molar value.

Consider one molecule from PMC13249423, “Capsaicin acts as a novel NRF2 agonist to suppress ethanol induced gastric mucosa oxidative damage by directly disrupting the KEAP1-NRF2 interaction” (eLife, 2026).

T2 sequence (Q14145 312-624 Y334A/R380A/N382A/N414A/R415A/Y572A/S602A): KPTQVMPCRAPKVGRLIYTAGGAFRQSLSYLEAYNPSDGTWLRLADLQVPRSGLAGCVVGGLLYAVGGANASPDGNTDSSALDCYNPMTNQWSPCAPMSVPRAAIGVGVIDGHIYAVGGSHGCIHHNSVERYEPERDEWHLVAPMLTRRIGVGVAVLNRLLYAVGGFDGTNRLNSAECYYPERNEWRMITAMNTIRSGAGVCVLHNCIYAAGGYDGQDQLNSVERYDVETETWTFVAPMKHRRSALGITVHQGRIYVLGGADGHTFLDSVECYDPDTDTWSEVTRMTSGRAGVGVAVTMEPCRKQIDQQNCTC
T1 sequence (Q14145 312-624): as the sequence (Q14145 312-624 Y334A/R380A/N382A/N414A/R415A/Y572A/S602A) above, with A23Y, A69R, A71N, A103N, A104R, A261Y, A291S counted along it

For orientation: pKd means −log10 of the Kd, conventionally taken in molar units. Take `COc1cc(CNC(=O)CCCC/C=C/C(C)C)ccc1O` [CAP, capsaicin]: the pKd was 4.50 in experiment [1] and 3.99 in experiment [2].
